Test results: patent US12024510B2, “Pyrazolopyridine-diamides, their use as insecticide and processes for preparing the same” (PI INDUSTRIES LTD., priority 2017, dated 2024)

Key:
Assay type in all cases: in vivo
Spodoptera litura = Spodoptera litura diet incorporation method; conditions: third instar larvae, dead and moribund combined, 96 h after release
Summary of the method: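 Compound milled to <2 μm average particle size in surfactant, dispersed in water (500 ppm stock dispersion), then mixed into semi-synthetic diet at ~50° C. One starved third-instar larva per diet cell, 25° C, 70% RH; percent mortality (dead plus moribund) scored at 96 h.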

Helicoverpa armigera = Helicoverpa armigera diet incorporation method; conditions: third instar larvae, dead and moribund combined, 96 h after release
Summary of the method: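 500 ppm stock of compound milled with surfactant and zirconia beads to average particle size below 2 μm, dispersed in DM water, diluted as needed, and mixed into semi-synthetic diet at about 50° C. Single starved third-instar larvae per cell, held at 25° C., 70% RH; dead plus moribund larvae scored as percent mortality at 96 h.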

Plutella xylostella = assay: whole plant or invertebrate; conditions: foliar, cabbage leaf dip, second instar larvae, dead and moribund combined, 72 h after release
Summary of the method: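 Compounds milled with zirconia beads into surfactant dispersion (500 ppm stock), diluted in 0.01% Triton-X. Cabbage leaves dipped 10 s, shade-dried 20 min; one second-instar larva per cell, 25 °C, 70% RH. Mortality (dead plus moribund) scored at 72 h.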

Measured: mortality at 300 ppm

Cc1cc2ccnn2c(C(=O)NC(C)(C)C)c1NC(=O)c1cc(Cn2nnc(C(F)(F)F)n2)nn1-c1ncccc1Cl [Compound 170, N-(tert-butyl)-6-(1-(3-chloropyridin-2-yl)-3-((5-(trifluoromethyl)-2H-tetrazol-2-yl)methyl)-1H-pyrazole-5-carboxamido)-5-methylpyrazolo[1,5-a]pyridine-7-carboxamide]
> 70%: all assays above

COc1cc(C(=O)Nc2c(C)cc3ccnn3c2C(=O)NCC2CCOCC2)n(-c2ncccc2Cl)n1 [Compound 201, 6-(1-(3-chloropyridin-2-yl)-3-methoxy-1H-pyrazole-5-carboxamido)-5-methyl-N-((tetrahydro-2H-pyran-4-yl)methyl)pyrazolo[1,5-a]pyridine-7-carboxamide]
> 70%: all assays above

Cc1cc2ccnn2c(C(=O)NC(C)C)c1NC(=O)c1cc(Oc2cc(C(F)(F)F)nn2C)nn1-c1ncccc1Cl [Compound 71, 6-(1-(3-chloropyridin-2-yl)-3-((1-methyl-3-(trifluoromethyl)-1H-pyrazol-5-yl)oxy)-1H-pyrazole-5-carboxamido)-N-isopropyl-5-methylpyrazolo[1,5-a]pyridine-7-carboxamide]
> 70%: all assays above

CNC(=O)c1c(NC(=O)c2cc(N3CC(F)(F)C3)nn2-c2ncccc2Cl)c(C)cc2ccnn12 [Compound 68, 6-(1-(3-chloropyridin-2-yl)-3-(3,3-difluoroazetidin-1-yl)-1H-pyrazole-5-carboxamido)-N,5-dimethylpyrazolo[1,5-a]pyridine-7-carboxamide]
> 70%: all assays above

COc1cc(C(=O)Nc2c(C)cc3ccnn3c2C(=O)NC(C)C2CC2)n(-c2ncccc2Cl)n1 (stereo not drawn) [Compound 99, 6-(1-(3-chloropyridin-2-yl)-3-methoxy-1H-pyrazole-5-carboxamido)-N-(1-cyclopropylethyl)-5-methylpyrazolo[1,5-a]pyridine-7-carboxamide]
> 70%: all assays above

O=C(Nc1c(Cl)cc2ccnn2c1C(=O)NCC1CC1)c1cc(Br)nn1-c1ncccc1Cl [Compound 140, 6-(3-bromo-1-(3-chloropyridin-2-yl)-1H-pyrazole-5-carboxamido)-5-chloro-N-(cyclopropylmethyl)pyrazolo[1,5-a]pyridine-7-carboxamide]
> 70%: all assays above

C=CCNC(=O)c1c(NC(=O)c2cc(OC)nn2-c2ncccc2Cl)c(C)cc2ccnn12 [Compound 44, N-allyl-6-(1-(3-chloropyridin-2-yl)-3-methoxy-1H-pyrazole-5-carboxamido)-5-methylpyrazolo[1,5-a]pyridine-7-carboxamide]
> 70%: all assays above

CONC(=O)c1c(NC(=O)c2cc(Br)nn2-c2ncccc2Cl)c(C)cc2ccnn12 [Compound 24, 6-(3-bromo-1-(3-chloropyridin-2-yl)-1H-pyrazole-5-carboxamido)-N-methoxy-5-methylpyrazolo[1,5-a]pyridine-7-carboxamide]
> 70%: all assays above

COc1cc(C(=O)Nc2c(C)cc3ccnn3c2C(=O)NCCC#N)n(-c2ncccc2Cl)n1 [Compound 41, 6-(1-(3-chloropyridin-2-yl)-3-methoxy-1H-pyrazole-5-carboxamido)-N-(2-cyanoethyl)-5-methylpyrazolo[1,5-a]pyridine-7-carboxamide]
> 70%: all assays above

C#CCNC(=O)c1c(NC(=O)c2cc(Br)nn2-c2ncccc2Cl)c(C)cc2ccnn12 [Compound 36, 6-(3-bromo-1-(3-chloropyridin-2-yl)-1H-pyrazole-5-carboxamido)-5-methyl-N-(prop-2-yn-1-yl)pyrazolo[1,5-a]pyridine-7-carboxamide]
> 70%: all assays above

CCNC(=O)c1c(NC(=O)c2cc(OCC(F)(F)F)nn2-c2ncccc2Cl)c(C)cc2ccnn12 [Compound 10, 6-(1-(3-chloropyridin-2-yl)-3-(2,2,2-trifluoroethoxy)-1H-pyrazole-5-carboxamido)-N-ethyl-5-methylpyrazolo[1,5-a]pyridine-7-carboxamide]
> 70%: all assays above

COc1cc(C(=O)Nc2c(C)cc3ccnn3c2C(=O)NC(C)C)n(-c2ncccc2Cl)n1 [Compound 32, 6-(1-(3-chloropyridin-2-yl)-3-methoxy-1H-pyrazole-5-carboxamido)-N-isopropyl-5-methylpyrazolo[1,5-a]pyridine-7-carboxamide]
> 70%: all assays above

Cc1cc2ccnn2c(C(=O)NC2CC2)c1NC(=O)c1cc(Br)nn1-c1ncccc1Cl [Compound 5, 6-(3-bromo-1-(3-chloropyridin-2-yl)-1H-pyrazole-5-carboxamido)-N-cyclopropyl-5-methylpyrazolo[1,5-a]pyridine-7-carboxamide]
> 70%: all assays above

COCCNC(=O)c1c(NC(=O)c2cc(OC)nn2-c2ncccc2Cl)c(C)cc2ccnn12 [Compound 33, 6-(1-(3-chloropyridin-2-yl)-3-methoxy-1H-pyrazole-5-carboxamido)-N-(2-methoxyethyl)-5-methylpyrazolo[1,5-a]pyridine-7-carboxamide]
> 70%: all assays above

COc1cc(C(=O)Nc2c(C)cc3ccnn3c2C(=O)NCC(F)F)n(-c2ncccc2Cl)n1 [Compound 214, 6-(1-(3-chloropyridin-2-yl)-3-methoxy-1H-pyrazole-5-carboxamido)-N-(2,2-difluoroethyl)-5-methylpyrazolo[1,5-a]pyridine-7-carboxamide]
> 70%: all assays above

CNC(=O)c1c(NC(=O)c2cc(Br)nn2-c2ncccc2Cl)c(Br)cc2ccnn12 [Compound 51, 5-bromo-6-(3-bromo-1-(3-chloropyridin-2-yl)-1H-pyrazole-5-carboxamido)-N-methylpyrazolo[1,5-a]pyridine-7-carboxamide]
> 70%: all assays above

Cc1cc2ccnn2c(C(=O)NCC2CC2)c1NC(=O)c1cc(Br)nn1-c1ncccc1Cl [Compound 3, 6-(3-bromo-1-(3-chloropyridin-2-yl)-1H-pyrazole-5-carboxamido)-N-(cyclopropylmethyl)-5-methylpyrazolo[1,5-a]pyridine-7-carboxamide]
> 70%: all assays above

Cc1cc2ccnn2c(C(=O)NC(C)(C)C)c1NC(=O)c1cc(Br)nn1-c1ncccc1Cl [Compound 8, 6-(3-bromo-1-(3-chloropyridin-2-yl)-1H-pyrazole-5-carboxamido)-N-(tert-butyl)-5-methylpyrazolo[1,5-a]pyridine-7-carboxamide]
> 70%: all assays above

CCNC(=O)c1c(NC(=O)c2cc(OC)nn2-c2ncccc2Cl)c(Cl)cc2ccnn12 [Compound 134, 5-chloro-6-(1-(3-chloropyridin-2-yl)-3-methoxy-1H-pyrazole-5-carboxamido)-N-ethylpyrazolo[1,5-a]pyridine-7-carboxamide]
> 70%: all assays above

CSCCNC(=O)c1c(NC(=O)c2cc(Br)nn2-c2ncccc2Cl)c(Br)cc2ccnn12 [Compound 55, 5-bromo-6-(3-bromo-1-(3-chloropyridin-2-yl)-1H-pyrazole-5-carboxamido)-N-(2-(methylthio)ethyl)pyrazolo[1,5-a]pyridine-7-carboxamide]
> 70%: all assays above

COc1cc(C(=O)Nc2c(C)cc3ccnn3c2C(=O)NC2COC2)n(-c2ncccc2Cl)n1 [Compound 46, 6-(1-(3-chloropyridin-2-yl)-3-methoxy-1H-pyrazole-5-carboxamido)-5-methyl-N-(oxetan-3-yl)pyrazolo[1,5-a]pyridine-7-carboxamide]
> 70%: all assays above
